Reference: ChEMBL document CHEMBL1641470, “New azoles with antifungal activity: Design, synthesis, and molecular docking” (2011)
Converted amounts (≈) assume the structure as drawn.

Key:
Type in all cases: functional
[1] = tested on: Candida albicans; experiment: Antifungal activity against Candida albicans ATCC Y0109 after 24 hrs by broth microdilution method
[2] = tested on: Cryptococcus neoformans; experiment: Antifungal activity against Cryptococcus neoformans ATCC BLS108 after 72 hrs by broth microdilution method
[3] = tested on: Candida parapsilosis; experiment: Antifungal activity against Candida parapsilosis by broth microdilution method; conditions: Lodderomyces parapsilosis
[4] = tested on: Candida tropicalis; experiment: Antifungal activity against Candida tropicalis by broth microdilution method
[5] = tested on: Trichophyton rubrum; experiment: Antifungal activity against Trichophyton rubrum by broth microdilution method
[6] = tested on: Fusarium; experiment: Antifungal activity against Fusarium by broth microdilution method
[7] = tested on: Nannizzia gypsea; experiment: Antifungal activity against Microsporum gypseum by broth microdilution method
[8] = tested on: Aspergillus fumigatus; experiment: Antifungal activity against Aspergillus fumigatus by broth microdilution method

Compound `O=C(/C=C/c1ccccc1)Nc1ccc(N2CCN(CC(O)(Cn3cncn3)c3ccc(F)cc3F)CC2)cc1` (stereo not drawn) has an MIC80 [1] of 0.0156 µg/mL (≈ 0.0286 µM), an MIC80 [2] of 0.25 µg/mL (≈ 0.459 µM) and an MIC80 [3] of 0.0625 µg/mL (≈ 0.115 µM). It also gave an MIC80 [4] of 0.0625 µg/mL (≈ 0.115 µM), an MIC80 [5] of 0.0039 µg/mL (≈ 0.00716 µM) and an MIC80 [6] of 0.0625 µg/mL (≈ 0.115 µM). For the same compound, the MIC80 [7] was 0.25 µg/mL (≈ 0.459 µM) and the MIC80 [8] was 16 µg/mL (≈ 29.4 µM).

Work on `O=C(/C=C/c1ccccc1F)Nc1ccc(N2CCN(CC(O)(Cn3cncn3)c3ccc(F)cc3F)CC2)cc1` (stereo not drawn) yielded an MIC80 [1] of 0.0039 µg/mL (≈ 0.00693 µM), an MIC80 [2] of 0.0625 µg/mL (≈ 0.111 µM) and an MIC80 [3] of 0.0625 µg/mL (≈ 0.111 µM). It also gave an MIC80 [4] of 0.0156 µg/mL (≈ 0.0277 µM), an MIC80 [5] of 0.25 µg/mL (≈ 0.444 µM) and an MIC80 [6] of 1 µg/mL (≈ 1.78 µM). For the same compound, the MIC80 [7] was 0.0625 µg/mL (≈ 0.111 µM) and the MIC80 [8] was greater than 64 µg/mL.

`O=C(/C=C/c1cccc(F)c1)Nc1ccc(N2CCN(CC(O)(Cn3cncn3)c3ccc(F)cc3F)CC2)cc1` (stereo not drawn) showed an MIC80 [1] of 0.0156 µg/mL (≈ 0.0277 µM), an MIC80 [2] of 0.25 µg/mL (≈ 0.444 µM) and an MIC80 [3] of 0.25 µg/mL (≈ 0.444 µM). The MIC80 [4] was 0.25 µg/mL (≈ 0.444 µM), the MIC80 [5] was 0.25 µg/mL (≈ 0.444 µM) and the MIC80 [6] was 1 µg/mL (≈ 1.78 µM). The MIC80 [7] was 0.0156 µg/mL (≈ 0.0277 µM) and the MIC80 [8] was 4 µg/mL (≈ 7.11 µM).

For `O=C(/C=C/c1ccc(F)cc1)Nc1ccc(N2CCN(CC(O)(Cn3cncn3)c3ccc(F)cc3F)CC2)cc1` (stereo not drawn), the MIC80 [1] was 0.0625 µg/mL (≈ 0.111 µM), the MIC80 [2] was 0.25 µg/mL (≈ 0.444 µM) and the MIC80 [3] was 0.25 µg/mL (≈ 0.444 µM). The MIC80 [4] was 0.25 µg/mL (≈ 0.444 µM), the MIC80 [5] was 0.0039 µg/mL (≈ 0.00693 µM) and the MIC80 [6] was 1 µg/mL (≈ 1.78 µM). The MIC80 [7] was 0.0625 µg/mL (≈ 0.111 µM) and the MIC80 [8] was 0.0625 µg/mL (≈ 0.111 µM).

In the case of `O=C(/C=C/c1ccccc1Cl)Nc1ccc(N2CCN(CC(O)(Cn3cncn3)c3ccc(F)cc3F)CC2)cc1` (stereo not drawn), the MIC80 [1] is reported as 0.0039 µg/mL (≈ 0.00674 µM), the MIC80 [2] is reported as 0.25 µg/mL (≈ 0.432 µM) and the MIC80 [3] is reported as 0.25 µg/mL (≈ 0.432 µM). For the same compound, the MIC80 [4] was 0.0625 µg/mL (≈ 0.108 µM), the MIC80 [5] was 0.0156 µg/mL (≈ 0.0269 µM) and the MIC80 [6] was 1 µg/mL (≈ 1.73 µM). The MIC80 [7] was 0.0156 µg/mL (≈ 0.0269 µM) and the MIC80 [8] was 4 µg/mL (≈ 6.91 µM).

`O=C(/C=C/c1cccc(Cl)c1)Nc1ccc(N2CCN(CC(O)(Cn3cncn3)c3ccc(F)cc3F)CC2)cc1` (stereo not drawn) gave an MIC80 [1] of 0.0625 µg/mL (≈ 0.108 µM), an MIC80 [2] of 1 µg/mL (≈ 1.73 µM) and an MIC80 [3] of 1 µg/mL (≈ 1.73 µM). It also gave an MIC80 [4] of 0.25 µg/mL (≈ 0.432 µM), an MIC80 [5] of 1 µg/mL (≈ 1.73 µM) and an MIC80 [6] of 64 µg/mL (≈ 111 µM). For the same compound, the MIC80 [7] was 0.0156 µg/mL (≈ 0.0269 µM) and the MIC80 [8] was 64 µg/mL (≈ 111 µM).

In the case of `O=C(/C=C/c1ccc(Cl)cc1)Nc1ccc(N2CCN(CC(O)(Cn3cncn3)c3ccc(F)cc3F)CC2)cc1` (stereo not drawn), the MIC80 [1] is reported as 0.0625 µg/mL (≈ 0.108 µM), the MIC80 [2] is reported as 1 µg/mL (≈ 1.73 µM) and the MIC80 [3] is reported as 0.25 µg/mL (≈ 0.432 µM). For the same compound, the MIC80 [4] was 0.25 µg/mL (≈ 0.432 µM), the MIC80 [5] was 0.25 µg/mL (≈ 0.432 µM) and the MIC80 [6] was 4 µg/mL (≈ 6.91 µM). The MIC80 [7] was 0.25 µg/mL (≈ 0.432 µM) and the MIC80 [8] was 64 µg/mL (≈ 111 µM).

Work on `O=C(/C=C/c1ccc(Cl)c(Cl)c1)Nc1ccc(N2CCN(CC(O)(Cn3cncn3)c3ccc(F)cc3F)CC2)cc1` (stereo not drawn) yielded an MIC80 [1] of 0.0156 µg/mL (≈ 0.0254 µM), an MIC80 [2] of 0.25 µg/mL (≈ 0.408 µM) and an MIC80 [3] of 0.0625 µg/mL (≈ 0.102 µM). The MIC80 [4] was 0.0625 µg/mL (≈ 0.102 µM), the MIC80 [5] was 0.0156 µg/mL (≈ 0.0254 µM) and the MIC80 [6] was 0.25 µg/mL (≈ 0.408 µM). For the same compound, the MIC80 [7] was 0.25 µg/mL (≈ 0.408 µM) and the MIC80 [8] was 4 µg/mL (≈ 6.52 µM).

`O=C(/C=C/c1cccc(Br)c1)Nc1ccc(N2CCN(CC(O)(Cn3cncn3)c3ccc(F)cc3F)CC2)cc1` (stereo not drawn) showed an MIC80 [1] of 0.0625 µg/mL (≈ 0.1 µM), an MIC80 [2] of 1 µg/mL (≈ 1.6 µM) and an MIC80 [3] of 0.25 µg/mL (≈ 0.401 µM). It also gave an MIC80 [4] of 0.25 µg/mL (≈ 0.401 µM), an MIC80 [5] of 0.0625 µg/mL (≈ 0.1 µM) and an MIC80 [6] of 1 µg/mL (≈ 1.6 µM). For the same compound, the MIC80 [7] was 1 µg/mL (≈ 1.6 µM) and the MIC80 [8] was 16 µg/mL (≈ 25.7 µM).

Compound `O=C(/C=C/c1ccc(Br)cc1)Nc1ccc(N2CCN(CC(O)(Cn3cncn3)c3ccc(F)cc3F)CC2)cc1` (stereo not drawn) has an MIC80 [1] of 0.0625 µg/mL (≈ 0.1 µM), an MIC80 [2] of 0.25 µg/mL (≈ 0.401 µM) and an MIC80 [3] of 0.25 µg/mL (≈ 0.401 µM). The MIC80 [4] was 0.25 µg/mL (≈ 0.401 µM), the MIC80 [5] was 0.0156 µg/mL (≈ 0.025 µM) and the MIC80 [6] was 1 µg/mL (≈ 1.6 µM). It also gave an MIC80 [7] of 0.25 µg/mL (≈ 0.401 µM) and an MIC80 [8] of 4 µg/mL (≈ 6.42 µM).

In the case of `Cc1ccc(/C=C/C(=O)Nc2ccc(N3CCN(CC(O)(Cn4cncn4)c4ccc(F)cc4F)CC3)cc2)cc1` (stereo not drawn), the MIC80 [1] is reported as 0.0625 µg/mL (≈ 0.112 µM), the MIC80 [2] is reported as 1 µg/mL (≈ 1.79 µM) and the MIC80 [3] is reported as 0.25 µg/mL (≈ 0.448 µM). The MIC80 [4] was 0.25 µg/mL (≈ 0.448 µM), the MIC80 [5] was 0.0156 µg/mL (≈ 0.0279 µM) and the MIC80 [6] was 16 µg/mL (≈ 28.6 µM). The MIC80 [7] was 0.25 µg/mL (≈ 0.448 µM) and the MIC80 [8] was 64 µg/mL (≈ 115 µM).

`COc1ccc(/C=C/C(=O)Nc2ccc(N3CCN(CC(O)(Cn4cncn4)c4ccc(F)cc4F)CC3)cc2)cc1OC` (stereo not drawn) gave an MIC80 [1] of 0.0156 µg/mL (≈ 0.0258 µM), an MIC80 [2] of 0.25 µg/mL (≈ 0.413 µM) and an MIC80 [3] of 0.0625 µg/mL (≈ 0.103 µM). It also gave an MIC80 [4] of 0.0625 µg/mL (≈ 0.103 µM), an MIC80 [5] of 0.25 µg/mL (≈ 0.413 µM) and an MIC80 [6] of 1 µg/mL (≈ 1.65 µM). It also gave an MIC80 [7] of 0.25 µg/mL (≈ 0.413 µM) and an MIC80 [8] of 4 µg/mL (≈ 6.62 µM).

`COc1ccc(OC)c(/C=C/C(=O)Nc2ccc(N3CCN(CC(O)(Cn4cncn4)c4ccc(F)cc4F)CC3)cc2)c1` (stereo not drawn) was tested, and the MIC80 [1] was 0.0156 µg/mL (≈ 0.0258 µM), the MIC80 [2] was 0.25 µg/mL (≈ 0.413 µM) and the MIC80 [3] was 0.25 µg/mL (≈ 0.413 µM). It also gave an MIC80 [4] of 0.0625 µg/mL (≈ 0.103 µM), an MIC80 [5] of 0.25 µg/mL (≈ 0.413 µM) and an MIC80 [6] of 4 µg/mL (≈ 6.62 µM). The MIC80 [7] was 1 µg/mL (≈ 1.65 µM) and the MIC80 [8] was greater than 64 µg/mL.

Compound `O=C(/C=C/c1ccccc1[N+](=O)[O-])Nc1ccc(N2CCN(CC(O)(Cn3cncn3)c3ccc(F)cc3F)CC2)cc1` (stereo not drawn) has an MIC80 [1] of 0.0156 µg/mL (≈ 0.0265 µM), an MIC80 [2] of 1 µg/mL (≈ 1.7 µM) and an MIC80 [3] of 0.25 µg/mL (≈ 0.424 µM). The MIC80 [4] was 0.0625 µg/mL (≈ 0.106 µM), the MIC80 [5] was 0.0625 µg/mL (≈ 0.106 µM) and the MIC80 [6] was 4 µg/mL (≈ 6.78 µM). The MIC80 [7] was 0.25 µg/mL (≈ 0.424 µM) and the MIC80 [8] was greater than 64 µg/mL.

In the case of `O=C(/C=C/c1cccc([N+](=O)[O-])c1)Nc1ccc(N2CCN(CC(O)(Cn3cncn3)c3ccc(F)cc3F)CC2)cc1` (stereo not drawn), the MIC80 [1] is reported as 0.0156 µg/mL (≈ 0.0265 µM), the MIC80 [2] is reported as 0.25 µg/mL (≈ 0.424 µM) and the MIC80 [3] is reported as 0.0625 µg/mL (≈ 0.106 µM). It also gave an MIC80 [4] of 0.25 µg/mL (≈ 0.424 µM), an MIC80 [5] of 0.0625 µg/mL (≈ 0.106 µM) and an MIC80 [6] of 1 µg/mL (≈ 1.7 µM). The MIC80 [7] was 0.25 µg/mL (≈ 0.424 µM) and the MIC80 [8] was 4 µg/mL (≈ 6.78 µM).

In the case of `O=C(/C=C/c1ccc([N+](=O)[O-])cc1)Nc1ccc(N2CCN(CC(O)(Cn3cncn3)c3ccc(F)cc3F)CC2)cc1` (stereo not drawn), the MIC80 [1] is reported as 0.0625 µg/mL (≈ 0.106 µM), the MIC80 [2] is reported as 1 µg/mL (≈ 1.7 µM) and the MIC80 [3] is reported as 1 µg/mL (≈ 1.7 µM). The MIC80 [4] was 0.25 µg/mL (≈ 0.424 µM), the MIC80 [5] was 0.0156 µg/mL (≈ 0.0265 µM) and the MIC80 [6] was 16 µg/mL (≈ 27.1 µM). For the same compound, the MIC80 [7] was 0.0625 µg/mL (≈ 0.106 µM) and the MIC80 [8] was 4 µg/mL (≈ 6.78 µM).
